Reference: ChEMBL document CHEMBL3244058, “Dibenz[b,e]oxepinalkanoic acids as nonsteroidal antiinflammatory agents. 2. Dihydro-10-oxofuro-and -thieno[3,2-c][1]benzoxepin-8-acetic acids” (J Med Chem, 1977)

Tests used:
Rattus norvegicus [1] = test: Antiinflammatory activity in po dosed rat assessed as inhibition of carrageenan-induced paw edema; assay type: functional
[2] = Gastrointestinal toxicity in po dosed rat assessed as induction of gastric irritation; assay type: organism-based, Stomach; conditions: in vivo, read-out: ID50 (the source's name)
[3] = Therapeutic index, ratio of ID50 for po dosed rat to ED50 for po dosed rat; assay type: organism-based; conditions: in vivo, read-out: TI
Rattus norvegicus [4] = test: Ratio of indomethacin ED50 to compound ED50 for po dosed rat assessed as inhibition of carrageenan-induced paw edema; assay type: functional

SMILES | ED50 (Rattus norvegicus [1]) | TD50 [2] | selectivity ratio [3] | Ratio ED50 (Rattus norvegicus [4])
O=C(O)Cc1ccc2c(c1)C(=O)c1sccc1CO2 | 3.37 mg/kg | 33.7 mg/kg | 10 | 1.3
O=C(O)Cc1ccc2c(c1)C(=O)c1occc1CO2 | 33.3 mg/kg |  |  | 
COc1ccc2c(c1)c(CC(=O)O)c(C)n2C(=O)c1ccc(Cl)cc1 [INDOMETHACIN] | 4.35 mg/kg |  | 0.4 | 
O=C(O)Cc1ccc2c(c1)C(=O)c1ccccc1CO2 [ISOXEPAC] | 6.36 mg/kg |  | 13 | 
